Compound in one assay: CC1=C(N=C(N=C1N)[C@H](CC(=O)N)NC[C@@H](C(=O)N)N)C(=O)N[C@@H]([C@H](C2=CN=CN2)OC3C(C(C(C(O3)CO)O)O)OC4C(C(C(C(O4)CO)O)OC(=O)N)O)C(=O)N[C@H](C)[C@H]([C@H](C)C(=O)N[C@@H]([C@@H](C)O)C(=O)NCCC5=NC(=CS5)C6=NC(=CS6)C(=O)NCCC[S+](C)C)O [Bleomycin]
The experiment in a line: relative viability (nuclei count vs DMSO), 5 days (fraction); higher = more cells survive. Particulars: main component drawn. The gist of the method:
(§1)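 A plate was accepted only when its control CV was below 25% and the cells had doubled at least once. Viability is defined from nuclear counts as treated wells divided by vehicle wells, with the median taken across plates. That median covers lung cancer cell lines grown in 1536-well plates, dosed by pinning at five √10-spaced library-drug concentrations, and counted in MetaXpress from 4× Hoechst images after 5 days.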

Compound in the next assay: COc1cc([C@@H]2c3cc4c(cc3[C@@H](O[C@@H]3O[C@@H]5CO[C@@H](C)O[C@H]5[C@H](O)[C@H]3O)[C@H]3COC(=O)[C@H]23)OCO4)cc(OC)c1O [Etoposide]
The assay is described as above. The gist of the method:
as §1

This is an account of results in the supplement of paper PMC10307832.

On to NCI-H2087, for which the relative viability with Bleomycin (0.01 µM) was 0.822; with Bleomycin (0.03162 µM) it was 1.06; with Bleomycin (0.1 µM), 0.851; with Bleomycin (0.3162 µM) it was 0.257; with Bleomycin (1 µM), 0.235; with Etoposide (0.01 µM), 0.967. Moreover, the relative viability in the assay with Etoposide (0.03162 µM) came to 1.11; with Etoposide (0.1 µM), 0.978; with Etoposide (0.3162 µM), 0.78; with Etoposide (1 µM) it was 0.259.
Turning to NCI-H2126, the relative viability with Bleomycin (0.01 µM) was 0.961; with Bleomycin (0.03162 µM) it was 1; with Bleomycin (0.1 µM) it was 1.03; with Bleomycin (0.3162 µM) it was 0.758; with Bleomycin (1 µM), 0.714; with Etoposide (0.01 µM), 0.977. Also, the relative viability was found to be 1.05 in the assay with Etoposide (0.03162 µM), 0.63 in the assay with Etoposide (0.1 µM), 0.859 with Etoposide (0.3162 µM) and 0.441 with Etoposide (1 µM).
On to NCI-H2170, for which the relative viability with Bleomycin (0.01 µM) was 0.939; in the assay with Bleomycin (0.03162 µM), 0.934; with Bleomycin (0.1 µM), 0.86; in the assay with Bleomycin (0.3162 µM) it was 0.703; with Bleomycin (1 µM) it was 0.66; in the assay with Etoposide (0.01 µM), 0.938. In addition, the results for the relative viability with Etoposide (0.03162 µM), with Etoposide (0.3162 µM) and with Etoposide (1 µM) were 0.985, 0.986 and 0.834, respectively.
NCI-H2228: the relative viability was 0.902 in the assay with Bleomycin (0.01 µM); 1.01 with Bleomycin (0.03162 µM); 0.899 in the assay with Bleomycin (0.1 µM); 0.559 with Bleomycin (0.3162 µM); 0.311 with Bleomycin (1 µM); 0.926 with Etoposide (0.01 µM). Also, the relative viability was found to be 1.1 with Etoposide (0.03162 µM), 0.7 in the assay with Etoposide (0.1 µM), 0.582 with Etoposide (0.3162 µM) and 0.195 with Etoposide (1 µM).
In the case of NCI-H2342, the relative viability in the assay with Bleomycin (0.01 µM) was 1.02; in the assay with Bleomycin (0.03162 µM), 0.999; in the assay with Bleomycin (0.1 µM), 0.968; in the assay with Bleomycin (0.3162 µM), 0.759; with Bleomycin (1 µM), 0.653; with Etoposide (0.01 µM) it was 1.04. Further, the relative viability with Etoposide (0.03162 µM) stood at 1.03; with Etoposide (0.1 µM), 0.533; with Etoposide (0.3162 µM), 0.38; with Etoposide (1 µM), 0.34.
Turning to NCI-H2347, the relative viability with Bleomycin (0.01 µM) was found to be 0.915; with Bleomycin (0.03162 µM), 1.03; with Bleomycin (0.1 µM), 0.918; with Bleomycin (0.3162 µM), 0.461; with Bleomycin (1 µM), 0.558; in the assay with Etoposide (0.01 µM), 1. For the same cell line, the relative viability with Etoposide (0.03162 µM) was 1.01; with Etoposide (0.1 µM), 0.733; with Etoposide (0.3162 µM), 0.541; in the assay with Etoposide (1 µM) it was 0.45.
In the case of NCI-H2405, the relative viability turned out to be 0.884 with Bleomycin (0.01 µM); 0.969 with Bleomycin (0.03162 µM); 0.918 in the assay with Bleomycin (0.1 µM); 0.569 with Bleomycin (0.3162 µM); 0.394 in the assay with Bleomycin (1 µM); 1.04 with Etoposide (0.01 µM). Moreover, the relative viability is 1.09 with Etoposide (0.03162 µM), 0.772 with Etoposide (0.1 µM), 0.835 with Etoposide (0.3162 µM) and 0.47 with Etoposide (1 µM).
With NCI-H3122, the relative viability with Bleomycin (0.01 µM) was 1; with Bleomycin (0.03162 µM), 0.993; with Bleomycin (0.1 µM), 0.928; with Bleomycin (0.3162 µM), 0.528; in the assay with Bleomycin (1 µM), 0.358; with Etoposide (0.01 µM), 1. The relative viability worked out at 0.995 in the assay with Etoposide (0.03162 µM), 0.983 in the assay with Etoposide (0.1 µM), 0.854 with Etoposide (0.3162 µM) and 0.333 with Etoposide (1 µM).
For PC-3 [JPC-3], the relative viability in the assay with Bleomycin (0.01 µM) was determined as 1.01; in the assay with Bleomycin (0.03162 µM), 1.01; with Bleomycin (0.1 µM), 0.939; in the assay with Bleomycin (0.3162 µM) it was 0.73; in the assay with Bleomycin (1 µM) it was 0.535; with Etoposide (0.01 µM), 1.03. Also, the relative viability was found to be 1.1 with Etoposide (0.03162 µM), 1.07 in the assay with Etoposide (0.1 µM), 0.989 with Etoposide (0.3162 µM) and 0.837 with Etoposide (1 µM).
Turning to PC-14, the relative viability with Bleomycin (0.01 µM) was 0.656; with Bleomycin (0.03162 µM), 0.612; with Bleomycin (0.1 µM), 0.286; with Bleomycin (0.3162 µM), 0.097; with Bleomycin (1 µM), 0.057; with Etoposide (0.01 µM), 0.996. The relative viability in the assay with Etoposide (0.03162 µM) turned out to be 1.08; with Etoposide (0.1 µM), 0.933; in the assay with Etoposide (0.3162 µM), 0.782; with Etoposide (1 µM), 0.441.
For the cell line RERF-LC-KJ, the relative viability with Bleomycin (0.01 µM) was 0.694; with Bleomycin (0.03162 µM), 0.675; with Bleomycin (0.1 µM), 0.591; with Bleomycin (0.3162 µM), 0.308; in the assay with Bleomycin (1 µM) it was 0.271; with Etoposide (0.01 µM), 0.846. In addition, the relative viability with Etoposide (0.03162 µM) came to 1.06; with Etoposide (0.1 µM), 0.861; in the assay with Etoposide (0.3162 µM), 0.873; with Etoposide (1 µM), 0.653.
For SK-LU-1, the relative viability was 0.897 in the assay with Bleomycin (0.01 µM); 1.01 with Bleomycin (0.03162 µM); 0.909 in the assay with Bleomycin (0.1 µM); 0.588 with Bleomycin (0.3162 µM); 0.411 with Bleomycin (1 µM); 0.99 with Etoposide (0.01 µM). The relative viability in the assay with Etoposide (0.03162 µM) is 1.03; with Etoposide (0.1 µM), 0.67; in the assay with Etoposide (0.3162 µM), 0.413; with Etoposide (1 µM), 0.264.
With SK-MES-1, the relative viability is 0.861 in the assay with Bleomycin (0.01 µM); 0.885 with Bleomycin (0.03162 µM); 0.77 in the assay with Bleomycin (0.1 µM); 0.371 with Bleomycin (0.3162 µM); 0.262 with Bleomycin (1 µM); 0.978 with Etoposide (0.01 µM). For the same cell line, the relative viability with Etoposide (0.03162 µM) came out at 1.06; with Etoposide (0.1 µM), 0.9; with Etoposide (0.3162 µM), 0.587; in the assay with Etoposide (1 µM) it was 0.258.
With SW 900, the relative viability was found to be 0.697 with Bleomycin (0.01 µM); 0.816 with Bleomycin (0.03162 µM); 0.6 with Bleomycin (0.1 µM); 0.21 in the assay with Bleomycin (0.3162 µM); 0.205 with Bleomycin (1 µM); 0.778 with Etoposide (0.01 µM). Besides, the relative viability was 0.809 with Etoposide (0.03162 µM), 0.729 with Etoposide (0.1 µM), 0.524 in the assay with Etoposide (0.3162 µM) and 0.224 in the assay with Etoposide (1 µM).
Turning to SW 1573, the relative viability with Bleomycin (0.01 µM) is 0.743; in the assay with Bleomycin (0.03162 µM), 0.705; in the assay with Bleomycin (0.1 µM), 0.677; with Bleomycin (0.3162 µM), 0.396; with Bleomycin (1 µM), 0.286; with Etoposide (0.01 µM), 0.968. Moreover, the relative viability turned out to be 0.986 with Etoposide (0.03162 µM), 0.635 with Etoposide (0.1 µM), 0.309 with Etoposide (0.3162 µM) and 0.167 in the assay with Etoposide (1 µM).
